Test in all cases: Inhibition of fungal growth, MIC scored visually
For one test, the system named is C. tropicalis ATCC75O. The format is cell-based. As to conditions: Candida tropicalis, 24 hour incubation at 35° C., read-out: Minimum Inhibitory Concentration. How it is done: (§1) Test compounds were tested against nine isolates in an eight-point dose response assay ranging from 50 μg/ml to 0.39 μg/ml. Aspergillus MIC's (minimum inhibitory concentrations) were scored visually after 48 and 72 hours at 37° C. […] Amphotericin B (2.5 μg/ml) and 5-flucytosine (2.0 μg ml) were standard controls for each antifungal assay. […] The results are shown below in Table 4, MIC values in μg/ml after 72 hours. HFF toxicity was analyzed after a 24 hour incubation at 37° C. (5% CO2). MTS/PMS was added, and the sample absorbance was read at 450 nm.

A further test relates to A.funigatus 94-2766. The format is cell-based. As to conditions: Aspergillus fumigatus, 942766. How it is done:
as §1

The next test concerns A. funigatis ATCC8001. It counts as cell-based. The following applies: Aspergillus fumigatus. As to the method: as §1
A further test has as its system A. niger. The format is cell-based. As to conditions: Aspergillus niger. As to the method: as §1
The subject of a further test is C. albicans ATCC90028. It counts as cell-based. As to conditions: Candida albicans, 24 hour incubation at 35° C., read-out: Minimum Inhibitory Concentration.
A further test has as its system C. krusei ATCC6258. The format is cell-based, Candida krusei. As to conditions: Pichia kudriavzevii, 24 hour incubation at 35° C., read-out: Minimum Inhibitory Concentration. As to the method: as §1
Test [1] deals with C. glabrata (Fluconazole resistant). It counts as cell-based, Candida glabrata. The following applies: Nakaseomyces glabratus; fluconazole resistant clinical isolate; 24 hour incubation at 35° C.; read-out: Minimum Inhibitory Concentration.
Test [2] deals with C. parapsilosis ATCC90018. It counts as cell-based, Candida parapsilosis. The following applies: Lodderomyces parapsilosis, 24 hour incubation at 35° C., read-out: Minimum Inhibitory Concentration. As to the method: as §1

Read-outs that look alike come from different tables or passages of the source.

In the case of `CC(C)(C)c1ccc(/C=C2\Oc3cc(O)cc(O)c3C2=O)cc1` [Formula S02], the MIC in the test on C. tropicalis ATCC75O is 12.5 µg/mL; in the test with A.funigatus 94-2766 (94-2766, value in parentheses, not defined (scored after 48 and 72 hours), read-out: Minimum Inhibitory Concentration (value in parentheses)), greater than 50 µg/mL; in the test with A.funigatus 94-2766 (94-2766 clinical isolate, value outside parentheses, read-out: Minimum Inhibitory Concentration) it was 6.25 µg/mL; in the test with A. funigatis ATCC8001 (ATCC8001, ATCC8001 (X2), value outside parentheses, read-out: Minimum Inhibitory Concentration), 6.25 µg/mL; in the test with A. funigatis ATCC8001 (ATCC8001, read-out: Minimum Inhibitory Concentration (value in parentheses), ATCC8001 (X2), value in parentheses, not defined (scored after 48 and 72 hours)) it was greater than 50 µg/mL; with A. funigatis ATCC8001 (ATCC8001, read-out: Minimum Inhibitory Concentration, ATCC8001 (X1), 37° C.), 12.5 µg/mL. In addition, the MIC with A. niger (clinical isolate, value outside parentheses, read-out: Minimum Inhibitory Concentration) was greater than 50 µg/mL; in the test on A. niger (value in parentheses, not defined (scored after 48 and 72 hours), read-out: Minimum Inhibitory Concentration (value in parentheses)), greater than 50 µg/mL; in the test on C. albicans ATCC90028 it was 12.5 µg/mL; in the test with C. krusei ATCC6258, 6.25 µg/mL; in test [1] it was 0.39 µg/mL; in test [2], 6.25 µg/mL.

The record behind these values is US20020086895A1, “Methods of treating fungal infections” (priority 1985, published 2002).
